Patent publication US12521425B2, “Method of liver cancer treatment with safranal-based formulations” (priority 2019, dated 2026)

Key:
HepG2 cells [1] = experiment: MTT assay, cell viability; format: cell-based; conditions: HepG2, 50-900 μM for 24, 48 and 72 hours; read-out: IC50, inhibition of cellular viability
Description: MTT assay. HepG2 cells were seeded at a density of 5000 cells/well in 96-well plates in 100 μL of complete growth medium. Cells were allowed to attach before being treated with different concentrations of safranal (Sigma Aldrich) (50 μM, 100 μM, 500 μM, 700 μM and 900 μM) for 24, 48 and 72 hours. After which, the cells were treated with 3-[4,5-dimethylthiazol-2-yl]-2,5-diphenyltratrazolium bromide (MTT) (Sigma Aldrich) and incubated for 3 hours. The formed formazan crystals were dissolved using DMSO and the absorbance of the resulting product was measured at 570 nm using an Epoch microplate spectrophotometer (Bio-Tek). Cell viability is presented as percentile of the untreated control which was calculated accordingly: Percent of viable cells=(Abs. of treated cells/Abs. of control cells)×100. *p≤0.05, **p≤0.001, ***p≤0.0001.

HepG2 cells [2] = experiment: Colony formation assay; format: cell-based; conditions: HepG2, 30-100 μM for 24 hours
Description: Colony formation. HepG2 cell were seeded at a density of 1000 cells/6-well plate, and left to incubate for 24 hours to allow attachment before being treated with different concentrations of safranal (30, 50, 100 μM) for 24 hours. After which, culture media containing safranal was replaced by fresh growth media without safranal. Culture media was replenished every 3 days, until visible colonies were formed. Colonies were fixed with absolute methanol, then stained with 0.5% crystal violet. Colonies were then imaged and analyzed using ImageJ plugin ColonyArea. Results are represented as the percent of area occupied by colonies. To confirm, an absorption-based method was carried out to validate results obtained from ImageJ. Briefly, stained colonies were treated with 10% acetic acid solution to dissolve the crystal violet stain. After which, 100 μL of each triplicate sample was transferred to a 96-well plate (in triplicates), and absorbance was measured using an Epoch microplate spectrophotometer (BioTek). *p≤0.05, **p≤0.001, ***p≤0.0001

HepG2 cells [3] = experiment: Western blotting of safranal-treated cells; format: cell-based
Description: Western blotting. HepG2 cells were seeded at a density of 1×10^6 cells/100 mm plate and allowed to attach before being treated with safranal. Cells were treated with 500 μM of safranal for different time intervals (6-48 hours) for time-dependent experiments. Whole cell lysates were separated using 10-15% SDS polyacrylamide gel electrophoresis. Proteins were transferred onto PVDF membranes prior to incubation with various primary antibodies p-histone H3, Cdc2, Cyclin B1, CDC25B, p21, p53, H2AX, p-H2AX, TOP1, TDP1, Cleaved PARP1, PCNA, HDAC1, HDAC2, Cleaved Caspase-9, Cleaved Caspase-8, Bax, Bcl-2, GRP78, ATF6, IRE1, PERK, p-eIF2S1, […], and CHOP. GAPDH, β-actin, and α-Tubulin were used as loading controls. Protein bands were detected using WesternSure Chemiluminescent Substrate (LI-COR) and C-DiGit blot scanner (LI-COR).

HepG2 cells [4] = experiment: Annexin V binding assay; format: cell-based; conditions: HepG2, 500 μM, after 48 hours; increase from 8%
[5] = system: DEN-induced hepatic neoplasia; experiment: Liver gross and histopathological examination in DEN-induced HCC model; format: in vivo, male Wistar rats; conditions: HCC rats
Description: A modified version of the protocol described by DePeralta et al. (2016) and Schiffer et al. (2005) was used here to establish the hepatocarcinogenesis model.
On the first 15 weeks, the control PBS group was treated with 1×PBS, whereas the experimental groups were given an intraperitoneal injection (IP) of 50 mg/kg of diethylnitrosoamine (DEN, Sigma Aldrich), a widely used chemical for inducing cancer, once a week. DEN was diluted with 1×PBS. Following a one-week break (week 16), the next three weeks (weeks 17 to 19) of treatment commenced. All drugs were administrated by oral gavage. All doses were chosen according to literature (Alsaied et al., 2014; Karafakioglu et al., 2017). For the HCC+sorafenib group, the drug (Carbosynth Limited) was administered at a dose of 10 mg/kg, five days a week. For the HCC+safranal group, the drug (Sigma Aldrich) was administered at a dose of 200 mg/kg, five days a week. For the HCC+safranal+sorafenib group, the drugs were administered at a dose of 200 mg/kg safranal+10 mg/kg sorafenib, five days a week. Both safranal and sorafenib were diluted with 1×PBS and drops of Tween 80. […] After 24-hours from last treatment, the rats were euthanized by mild diethyl ether and dissected in equal conditions. Blood and whole liver were collected.
Liver sample specimens were fixed in 10% neutral buffered formalin, dehydrated in a series of graded ethanol, embedded in paraffin blocks, and cut into 3 μm-thick sections. To detect histopathological changes, sections were stained with hematoxylin and eosin (H&E), and reticulin stain kit according to the protocol provided (Abcam), then examined under light microscope (Ozkececi et al., 2016). Blinded examination of tissue samples was carried out by a pathologist from Tawam Hospital—United Arab Emirates.

[6] = male rats, oral (Hosseinzadeh et al., 2013); cited from earlier work

## CC1=C(C=O)C(C)(C)CC=C1 [safranal]
HepG2 cells [1]
  IC50: 500 µM
HepG2 cells [2]
  colony formation: inhibited colony formation of HepG2 cells in a dose-dependent manner
HepG2 cells [3]; HepG2, 500 μM
  HDAC1 expression: inhibited
  HDAC2 expression: remained unchanged
HepG2 cells [3]; HepG2, 500 μM, 6-48 hours
  Cdc2 expression: inhibit Cdc2 expression starting at 12 hours
  H2AX expression: remained unchanged
  expression of Cyclin B1 and CDC25B: inhibiting expression of Cyclin B1 and CDC25B starting at 6 hours
  expression of phosphorylated histone H3: inhibited dramatically
  p-H2AX (DNA damage marker): observed starting at 6 hours
  proliferation marker PCNA: inhibition
HepG2 cells [3]; HepG2, 500 μM, up to 48 hours
  CHOP/DDIT3 and phosphorylated eIF2α: upregulated
  expression of p21: inhibited
  expressions of GRP78 and of p27: induced
  main sensors of UPR, PERK, MEL and ATF6: general upregulation trend
HepG2 cells [3]; HepG2, 6, 12, 24, 48 hours
  TDP1 level: lower levels
  TOP1 level: higher levels
HepG2 cells [3]; HepG2, time-based
  caspase-8 cleavage: cleaved starting at 24 hours
  caspase-9 cleavage: cleaved starting at 12 hours
  ratio of Bax to Bcl-2: increased
HepG2 cells [4]
  number of dead cells (annexin V): 31%
[5]; H&E, versus HCC
  area of neoplastic foci (histology): restoration of the normal architecture of the liver
[5]; comparing to HCC animals
  number of liver nodules / lesions: reduced lesions
[5]; comparing to HCC group
  reticular fibers (reticulin staining): reduced reticular fibers' breakage and restored their morphology
[6]
  oral LD50: 5.53 mL/kg
